Read-outs that look alike come from different tables or passages of the source.
Legend:
[1] = biological target: purified human Factor XIa (Homo sapiens (Human), UniProt P03951); assay: Factor XIa assay (chromogenic substrate S-2366 hydrolysis, Ki); type: biochemical; conditions: substrate S-2366, pH 7.4
Protocol: The effectiveness of compounds of the present invention as inhibitors of the coagulation Factors XIa, VIIa, IXa, Xa, XIIa, plasma kallikrein or thrombin, can be determined using a relevant purified serine protease, respectively, and an appropriate synthetic substrate. The rate of hydrolysis of the chromogenic or fluorogenic substrate by the relevant serine protease was measured both in the absence and presence of compounds of the present invention. […] A decrease in the rate of absorbance or fluorescence change in the presence of inhibitor is indicative of enzyme inhibition. Such methods are known to one skilled in the art. The results of this assay are expressed as the inhibitory constant, Ki.
Factor XIa determinations were made in 50 mM HEPES buffer at pH 7.4 containing 145 mM NaCl, 5 mM KCl, and 0.1% PEG 8000 (polyethylene glycol; JT Baker or Fisher Scientific). Determinations were made using purified human Factor XIa at a final concentration of 25-200 pM (Haematologic Technologies) and the synthetic substrate S-2366 (pyroGlu-Pro-Arg-pNA; CHROMOGENIX® or AnaSpec) at a concentration of 0.0002-0.001 M.
Values of Ki were determined by allowing the protease to react with the substrate in the presence of the inhibitor. Reactions were allowed to go for periods of 20-180 minutes (depending on the protease) and the velocities (rate of absorbance or fluorescence change versus time) were measured. The following relationships were used to calculate Ki values: (vo−vs)/vs=I/(Ki(1+S/Km)) for a competitive inhibitor with one binding site; or vs/vo=A+((B−A)/1+((IC50/(I)0))); and Ki=IC50/(1+S/Km) for a competitive inhibitor where: […]

Sequence of purified human Factor XIa (P03951 388-625): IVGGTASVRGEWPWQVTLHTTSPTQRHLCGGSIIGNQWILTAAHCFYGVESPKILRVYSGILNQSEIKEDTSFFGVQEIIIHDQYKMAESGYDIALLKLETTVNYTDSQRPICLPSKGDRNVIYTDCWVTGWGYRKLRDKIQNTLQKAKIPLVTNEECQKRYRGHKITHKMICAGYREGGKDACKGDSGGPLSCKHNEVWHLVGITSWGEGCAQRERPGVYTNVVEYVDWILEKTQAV
Sequence of purified human Factor XIa (P03951 19-387 partner): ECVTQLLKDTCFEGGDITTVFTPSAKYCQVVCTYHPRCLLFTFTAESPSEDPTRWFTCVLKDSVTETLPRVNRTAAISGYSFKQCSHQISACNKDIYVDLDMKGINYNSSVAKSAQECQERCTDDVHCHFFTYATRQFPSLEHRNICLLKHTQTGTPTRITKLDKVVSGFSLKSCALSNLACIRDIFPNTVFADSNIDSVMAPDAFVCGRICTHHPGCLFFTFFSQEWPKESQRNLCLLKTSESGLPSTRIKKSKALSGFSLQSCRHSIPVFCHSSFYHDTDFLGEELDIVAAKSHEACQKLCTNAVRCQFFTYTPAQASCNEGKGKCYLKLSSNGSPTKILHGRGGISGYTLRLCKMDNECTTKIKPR

Ki [1] | SMILES | further results
 | CC(C)(C)OC(=O)N[C@H]1CC=CCCCc2ccccc2-c2cn(COCC[Si](C)(C)C)c1n2 | ring closure, isolated yield (from C=CCCCc1ccccc1-c1cn(COCC[Si](C)(C)C)c([C@H](CC=C)NC(=O)OC(C)(C)C)n1, rcm bond, 12-membered ring, Grubbs II (0.4 eq)/pTsOH.H2O, DCM, 0.97 mM, 40.0 °C): 45.3%
 | COC(=O)Nc1ccc2c(c1)NC(=O)CCc1nc(ccc1F)CC(NC(=O)OC(C)(C)C)C1=NC=C2O1 (centres unmarked) | ring closure, isolated yield (from COC(=O)Nc1ccc(-c2cnc(C(Cc3ccc(F)c(CCC(=O)O)n3)NC(=O)OC(C)(C)C)o2)c(N)c1, amide bond, 14-membered ring, BOP/DMAP/DIEA, DCM/DMF, 1.1 mM, 25.0 °C, 16.0 h): 23%
2980 nM | O=C(/C=C/c1cc(Cl)ccc1-n1cnnn1)N[C@H]1C/C=C/CCOc2ccccc2-c2c[nH]c1n2 [Example 1, (E)-3-(5-Chloro-2-tetrazol-1-yl-phenyl)-N-(E)-(S)-8-oxa-16,18-diaza-tricyclo[13.2.1.0^2,7]octadeca-1(17),2,4,6,11,15(18)-hexaen-14-yl-acrylamide] | 
< 5 nM | COC(=O)Nc1ccc2c(c1)NC(=O)CCCC[C@H](NC(=O)/C=C/c1cc(Cl)ccc1-n1cnnn1)c1nc-2c[nH]1 [Example 10, {(S)-14-[(E)-3-(5-Chloro-2-tetrazol-1-yl-phenyl)-acryloylamino]-9-oxo-8,16,18-triaza-tricyclo[13.2.1.0^2,7]octadeca-1(17),2,4,6,15(18)-pentaen-5-yl}-carbamic acid methyl ester] | 
2390 nM | COC(=O)Nc1ccc2c(c1)NC[C@@H]1CCN(C1)C(=O)C[C@H](NC(=O)/C=C/c1cc(Cl)ccc1-n1cnnn1)c1nc-2c[nH]1 [Example 86] | 
8.16 nM | COC(=O)Nc1ccc2c(c1)CCCCc1cccc(c1)C[C@H](NC(=O)/C=C/c1cc(Cl)ccc1-n1cnnn1)c1nc-2c(Cl)[nH]1 [Example 102] | 
71 nM | COC(=O)Nc1ccc2c(c1)CCCCc1ccc(cc1)C[C@H](NC(=O)/C=C/c1cc(Cl)ccc1-n1cnnn1)c1nc-2c[nH]1 [Example 111] | 
< 5 nM | COC(=O)Nc1ccc2c(c1)NC(=O)CCc1nc(ccc1F)CC(NC(=O)/C=C/c1cc(Cl)ccc1C(C)=O)c1nc-2c[nH]1 (centres unmarked) [Example 140, Methyl N-{3-[(2E)-3-(2-acetyl-5-chlorophenyl)prop-2-enamido]-19-fluoro-15-oxo-5,14,22,23-tetraazatetracyclo[16.3.1.1^4,7.0^8,13]tricosa-1(22),4(23),6,8,10,12,18,20-octaen-11-yl}carbamate] | 
145 nM | COC(=O)Nc1ccc2c(c1)NC(=O)CCc1nc(ccc1F)CC(NC(=O)c1c(F)cc(C)cc1F)c1nc-2c[nH]1 (centres unmarked) [Example 142, Methyl N-{3-[(2,6-difluoro-4-methylbenzene)amido]-19-fluoro-15-oxo-5,14,22,23-tetraazatetracyclo[16.3.1.1^4,7.0^8,13]tricosa-1(22),4(23),6,8,10,12,18,20-octaen-11-yl}carbamate] | 
1310 nM | COC(=O)Nc1ccc2c(c1)NC(=O)CCc1nc(ccc1F)CC(NC(=O)[C@H]1CC[C@H](C)CC1)c1nc-2c[nH]1 (some centres unmarked) [Example 143, Methyl N-{19-fluoro-3-[(4-methylcyclohexane)amido]-15-oxo-5,14,22,23-tetraazatetracyclo[16.3.1.1^4,7.0^8,13]tricosa-1(22),4(23),6,8,10,12,18,20-octaen-11-yl}carbamate] | 
103 nM | COC(=O)Nc1ccc2c(c1)NC(=O)CCc1nc(ccc1F)CC(NC(=O)/C=C/c1cc(Cl)ccc1-n1cnnn1)c1nc-2cn1C (centres unmarked) [III-33] | 

— US8828983B2, “Macrocycles as factor XIa inhibitors” (Bristol-Myers Squibb Company, priority 2010, dated 2014)
